Test results published in patent publication US10662204B2 (PFIZER INC., priority 2018, dated 2020).

Experiments:
KRAS G12C = KRAS G12C (Homo sapiens, UniProt P01116, G12C); assay: Cell Activity Assay: accumulation of GDP-bound KRAS G12C in MIAPaCa-2 cells (Raf-1 RBD capture, MSD readout); type: cell-based; design: endogenous in cells; host or cells: MIAPaCa-2; conditions: 6 hours, assay limit is 30.00
Procedure: Compounds presented in the present invention lead to the accumulation of the GDP bound Ras upon treatment of human cancer cell line.
The accumulation of the GDP-bound KRAS G12C in cellular environment was measured based on the principle that KRAS G12C only binds to its downstream kinase; Raf-1 (MAP Kinase Kinase Kinase), when in its active-GTP bound state. In this state, Ras binded to a domain of Raf-1 kinase referred to as the Ras Binding Domain (RBD).
MIAPaCa-2 cells were grown in RPMI 1640 medium (Gibco 11875) supplemented with 10% fetal bovine serum and 1% penicillin/streptomycin. Cells were seeded in 96-well tissue culture plates at a density of 30,000 cells/well and allowed to attach for 16-24 hours. Test compounds were prepared as a 10 mM stock in DMSO and serially diluted in 100% DMSO using a 3-fold dilution scheme. An intermediate 5× concentrated plate in complete growth medium was made and 25 μl/well was added to the 100 μl of cells for a final concentration of 0.3% DMSO. Each concentration of exemplary compound was tested in duplicate. The negative control wells were cells with control inhibitor at 10 μM, and the positive control wells were cells without drugs, DMSO only. Plates were incubated for 6 hours at 37° C., 5% CO2. Following treatment, cells were washed 3× with ice-cold PBS and 115 μl/well ice-cold 1× Assay/Lysis. Buffer with protease inhibitors was added (25 mM HEPES, pH 7.5, 150 mM NaCl, 1% NP-40, 10 mM MgCl2, 1 mM EDTA, 2% Glycerol). Following lysis samples were frozen at −80° C.
Raf-1 RBD (LJIC-1988A1) was diluted to 100 ng/well in PBS and 5 μl/well was spot coated onto MSD high bind SECTOR plates (L15XB). Plates were incubated at room temperature for 1 hour on an orbital shaker. Plates were washed with PBS/0.05% Tween-20 and 50 μl/well of thawed lysate samples were added, followed by 50 μl of 1% MSD Blocker A in PBS/0.05 Tween-20 (R93BA). Plates were incubated for 1 hour on an orbital shaker and washed with PBS/0.05% Tween-20. 25 μl/well of Anti-pan-Ras Antibody (Cell Biolabs 244003) diluted 1:3000 was added in 1% MSD Blocker A solution and plates were incubated for 1 hour on an orbital shaker and washed with PBS/0.05% Tween-20. SULFO-TAG goat anti-mouse secondary antibody (MSD R32AC) was diluted 1:500 in MSD Blocker A solution and added at 25 μL/well. Plates were incubated for 1 hour on an orbital shaker and washed with PBS/0.05% Tween-20. 150 μl/well of Read Buffer T (MSD R92TC) diluted 1:3 in H2O was added and plates were read on a Meso Scale Discovery Sector Imager S600.
KRAS signal was normalized to maximum inhibition and DMSO control values, and IC50 values were generated using a 4 parameter fit of the dose response curve. The decrease in IC50 reflects that the exemplary compound lead to a higher level of accumulation of GDP-bound KRAS G12C than another exemplary compounds at specific timepoint of treatment of cancer cell line.

[1] = molecular target: T1, GDP-loaded KRAS (1-169) G12C, C51S, C80L, C118S (Homo sapiens, UniProt P01116, C118S/C51S/C80L/G12C); assay: Mass Spectrometry Reactivity Assay (MSRA): covalent adduct of compound and KRAS G12C, Percent Modification; type: binding; conditions: for MSRA (% modification) 5.0 μM 0.25 hr / MSRA (% modification) 5.0 μM 0.017 hr: 5.0 μM compound; for MSRA (% modification) 10 μM 0.25 hr / MSRA (% modification) 10 μM 0.50 hr: 10 μM compound
T1 construct: GDP-loaded KRAS (1-169) G12C, C51S, C80L, C118S
Procedure: Mass Spectrometry Reactivity Assay (MSRA)
Compounds presented in the present invention covalently bind to KRAS G12C using MSRA to detect a covalent adduct of the exemplary compound and KRAS G12C.
GDP-loaded KRAS (1-169) G12C, C51S, C80L, C118S were diluted in the protein assay buffer 25 mM Hepes pH7.5, 200 mM NaCl, 5% glycerol to concentration of 5 μM and 20 μl of protein was transferred into 96-well plate. Initial compound stocks were generated at concentrations 100-fold higher that their desired assay concentrations. See K-Ras(G12C) inhibitors allosterically control GTP affinity and effector interactions; Ostrem J M, Peters U, Sos M L, Wells J A, Shokat K M; Nature. 2013, Nov. 28; 503(7477):548-51.
Exemplary compounds dissolved in DMSO were diluted 100-fold into solution containing 20 μl of 5 μM KRAS protein in the 96-well plate to initiate the reaction. Mosquito (TPP Lab tech) liquid handling robot was used to add compounds to protein solution. Typical final concentration of the compounds was 5 μM or 10 μM. The plates were placed on a shaker for 1 min at RT, sealed and incubated at room temperature for specified time period. 5 μl of reaction mix was added to 10 μl of 0.2% formic acid stop solution and mixed well. Typical end points were 1, 15, 30, and 60 min.
Data were collected using Waters Acquity H-class UPLC system/Xevo G2-XS TOF mass spectrometer. The protein was injected in their liquid phase onto a Bruker Microtrap protein column TR1/15109/03. The following buffers were used to set LC gradient: Buffer A: 0.2% formic acid H2O; B: 0.2% formic acid CAN. The protein was eluted from the column using the following LC Gradient: 0-0.4 min, 10% B to 30% B; 0.4 min-2.4 min, to 90% B, 2.5 min, 10% B, 3 min, 10% B. Initial data analysis was performed using MaxEnt software right after data acquisition.
The standard auto processing function was used to define percentage of unmodified and modified KRAS protein using MexEnt software right after data acquisition. The highest peak was defined as 100% while smaller peak as assigned the number defined by autoprocessing function. The percent of modification corresponding to modified with exemplary compound and unmodified KRAS GDP-loaded KRAS (1-169) G12C, C51S, C80L, C118S were exported to Xcel data analysis software.
The percent of modified protein at the defined concentration of exemplary compound was calculated using the following formula: % mod=Num of modified peak/Sum of modified+unmodified. The resultant value defined as Percent Modification (PM) and an increase in PM reflects that the specific compound is better than other compounds at specified compound concentration at a given time point.

Row | Compound | IC50 (KRAS G12C) | MSRA (% modification) 5.0 μM 0.25 hr [1] | MSRA (% modification) 10 μM 0.25 hr [1] | MSRA (% modification) 10 μM 0.50 hr [1] | MSRA (% modification) 5.0 μM 0.017 hr [1]
1 | C=CC(=O)N1CCN(c2nc(OCCN(C)C)nc3c(Oc4c(Cl)c(C)cc5[nH]ncc45)cccc23)CC1 [Example 15E, 1-(4-{8-[(5-chloro-6-methyl-1H-indazol-4-yl)oxy]-2-[2-(dimethylamino)ethoxy]quinazolin-4-yl}piperazin-1-yl)prop-2-en-1-one] | 0.51 µM | 56% | 59% | 74% | –
2 | C=CC(=O)N1CCN(c2nc(O[C@@H]3CCN(C)C[C@H]3C)nc3c(Oc4c(Cl)c(F)cc5[nH]ncc45)nc(Cl)cc23)CC1 (racemic) [Example 34G, rac-1-[4-(6-chloro-8-[(5-chloro-6-fluoro-1H-indazol-4-yl)oxy]-2-{[(3R,4R)-1,3-dimethylpiperidin-4-yl]oxy}pyrido[3,4-d]pyrimidin-4-yl)piperazin-1-yl]prop-2-en-1-one] | 0.063 µM | – | – | – | 47%
3 | C=CC(=O)N1CCN(c2ncnc3c(Oc4c(C)ccc5[nH]ncc45)nc(C)cc23)CC1 [Example 02A, 1-(4-{6-methyl-8-[(5-methyl-1H-indazol-4-yl)oxy]pyrido[3,4-d]pyrimidin-4-yl}piperazin-1-yl)prop-2-en-1-one] | 5.25 µM | – | – | 15% | –
4 | C=CC(=O)N1CCN(c2nc(N3CC(N(C)C)C3)nc3c(Oc4c(Cl)c(C)cc5[nH]ncc45)nccc23)CC1 [Example 04E, 1-(4-{8-[(5-chloro-6-methyl-1H-indazol-4-yl)oxy]-2-[3-(dimethylamino)azetidin-1-yl]pyrido[3,4-d]pyrimidin-4-yl}piperazin-1-yl)prop-2-en-1-one] | 0.585 µM | 71% | 60% | 62% | –
5 | C=CC(=O)N1CCN(c2nc(Oc3ccc(F)c4c3CN(C)CC4)nc3c(Oc4c(Cl)c(F)cc5[nH]ncc45)nccc23)CC1 [Example 54I, 1-(4-{8-[(5-chloro-6-fluoro-1H-indazol-4-yl)oxy]-2-[(5-fluoro-2-methyl-1,2,3,4-tetrahydro-isoquinolin-8-yl)oxy]pyrido [3,4-d]pyrimidin-4-yl}piperazin-1-yl)prop-2-en-1-one] | 0.019 µM | – | – | – | 78%
6 | C=CC(=O)N1CCN(c2ncnc3c(Oc4c(Cl)c(F)cc5[nH]ncc45)nc(Cl)cc23)[C@H](C)C1 [Example 40A, 1-[(3R)-4-{6-chloro-8-[(5-chloro-6-fluoro-1H-indazol-4-yl)oxy]pyrido[3,4-d]pyrimidin-4-yl}-3-methylpiperazin-1-yl]prop-2-en-1-one] | 20.9 µM | – | 6% | – | –
7 | C=CC(=O)N1CCN(c2nc(OC[C@@H]3C[C@@H](F)CN3C)nc3c(Oc4c(Cl)c(F)cc5[nH]ncc45)nc(Cl)cc23)CC1 [Example 16G, 1-[4-(6-chloro-8-[(5-chloro-6-fluoro-1H-indazol-4-yl)oxy]-2-{[(2S,4R)-4-fluoro-1-methylpyrrolidin-2-yl]methoxy}pyrido[3,4-d]pyrimidin-4-yl)piperazin-1-yl]prop-2-en-1-one] | 0.111 µM | – | 14% | – | –
8 | C=CC(=O)N1CCN(c2ncnc3c(Oc4c(F)c(Cl)cc5[nH]ncc45)nc(Cl)cc23)CC1 [Example 34A, 1-(4-{6-chloro-8-[(6-chloro-5-fluoro-1H-indazol-4-yl)oxy]pyrido[3,4-d]pyrimidin-4-yl}piperazin-1-yl)prop-2-en-1-one] | 1.29 µM | 19% | 47% | – | –
9 | C=CC(=O)N1CCN(c2nc(OC[C@]3(F)CCN(C)C3)nc3c(Oc4c(Cl)c(F)cc5[nH]ncc45)nccc23)CC1 [Example 14H, 1-[4-(8-[(5-chloro-6-fluoro-1H-indazol-4-yl)oxy]-2-{[(3S)-3-fluoro-1-methylpyrrolidin-3-yl]methoxy}pyrido[3,4-d]pyrimidin-4-yl)piperazin-1-yl]prop-2-en-1-one] | 0.082 µM | 52% | 81% | – | –
10 | C=CC(=O)N1CCN(c2nc(OC3CN(C)CC34CC4)nc3c(Oc4c(Cl)c(F)cc5[nH]ncc45)nc(Cl)cc23)CC1 (stereo not shown) [Example 36G, 1-(4-{6-chloro-8-[(5-chloro-6-fluoro-1H-indazol-4-yl)oxy]-2-[(5-methyl-5-azaspiro[2.4]heptan-7-yl)oxy]pyrido[3,4-d]pyrimidin-4-yl}piperazin-1-yl)prop-2-en-1-one] | 0.109 µM | – | – | – | 35%
11 | C=CC(=O)N1CCN(c2ncnc3c(Cc4c(C)ccc5[nH]ncc45)nccc23)CC1 [Example 02D, 1-(4-{8-[(5-methyl-1H-indazol-4-yl)methyl]pyrido[3,4-d]pyrimidin-4-yl}piperazin-1-yl)prop-2-en-1-one] | 4.66 µM | – | – | 12% | –
12 | C=CC(=O)N1CCN(c2ncnc3c(Oc4c(F)ccc5[nH]ncc45)nccc23)CC1 [Example 08A, 1-(4-{8-[(5-fluoro-1H-indazol-4-yl)oxy]pyrido[3,4-d]pyrimidin-4-yl}piperazin-1-yl)prop-2-en-1-one] | 11.1 µM | – | – | 6% | –
13 | C=CC(=O)N1CCN(c2nc(OC[C@@H]3CCCN3C)nc3c(Oc4c(Cl)c(F)cc5[nH]ncc45)cccc23)CC1 [Example 16E, 1-[4-(8-[(5-chloro-6-fluoro-1H-indazol-4-yl)oxy]-2-{[(2S)-1-methylpyrrolidin-2-yl]methoxy}quinazolin-4-yl)piperazin-1-yl]prop-2-en-1-one] | 0.413 µM | – | 11% | – | –
14 | C=CC(=O)N1CCN(c2nc(OCCCN(C)C)nc3c(Oc4c(C)ccc5[nH]ncc45)nccc23)CC1 [Example 04B, 1-(4-{2-[3-(dimethylamino)propoxy]-8-[(5-methyl-1H-indazol-4-yl)oxy]pyrido[3,4-d]pyrimidin-4-yl}piperazin-1-yl)prop-2-en-1-one] | 23 µM | – | – | 21% | –
